In patent publication US7838218B2, “Light emitting probes” (priority 2003, dated 2010):

Biological target: T1, rabbit serum albumin (RSA) (Oryctolagus cuniculus, UniProt P49065)
T1 construct: purchased Sigma (Sigma-Aldrich Chemical Co.)
Assay: Fluorescence emission of probes with rabbit serum albumin as binder
Type: binding
Settings: pyrene butyric acid excited at 345 nm, FITC at 490 nm; PBS
Description: Fluorescence measurements were made on a Hitachi F-2500 fluorescence spectrophotometer with a 1 cm path length cuvette. Spectra were measured at a rate of 1500 nm/min. Excitation wavelength of 345 nm was used for pyrene and 490 nm for FITC.
Lifetimes were measured on modified IBH machine.
Proteins with hydrophobic pockets could be used as binders. […] The binder is not restricted to proteins. […] The excitation wavelength was 345 nm.

T1 sequence (P49065 25-608): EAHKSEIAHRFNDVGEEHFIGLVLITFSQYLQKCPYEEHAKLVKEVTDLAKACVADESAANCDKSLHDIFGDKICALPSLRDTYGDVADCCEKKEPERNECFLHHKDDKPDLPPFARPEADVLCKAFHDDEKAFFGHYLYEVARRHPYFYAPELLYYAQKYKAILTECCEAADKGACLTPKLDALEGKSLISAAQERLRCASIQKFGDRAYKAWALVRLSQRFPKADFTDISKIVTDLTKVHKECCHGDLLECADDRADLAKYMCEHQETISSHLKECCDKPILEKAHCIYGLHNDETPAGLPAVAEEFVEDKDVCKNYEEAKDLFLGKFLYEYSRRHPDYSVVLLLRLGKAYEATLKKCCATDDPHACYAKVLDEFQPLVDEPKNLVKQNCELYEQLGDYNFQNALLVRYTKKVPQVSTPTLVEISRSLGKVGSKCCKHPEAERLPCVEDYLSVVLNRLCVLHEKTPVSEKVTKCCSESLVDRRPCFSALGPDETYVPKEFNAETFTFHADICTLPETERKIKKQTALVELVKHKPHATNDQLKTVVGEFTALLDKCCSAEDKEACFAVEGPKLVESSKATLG

Compound	effect of RSA on own emission spectrum of the free fluorophore
O=C1OC2(c3ccc(O)cc3Oc3cc(O)ccc32)c2ccc(N=C=S)cc21 [FITC, fluorescein isothiocynate]	appears not to change
c1cc2ccc3cccc4ccc(c1)c2c34 [pyrene butyric acid]	increasing the fluorescence intensity
